Experiment [1] relates to neonatal rat ventricular myocytes (NRVM). Kind of experiment: Cell volume measurement (Coulter counter) of NRVM. It is filed as cell-based. The conditions noted are these: NRVM stimulated with compound alone. On the procedure: NRVM culture. For preparations of neonatal rat ventricular myocytes (NRVMs), hearts were removed from 10-20 newborn (1-2 days old) Sprague-Dawley rats. Isolated ventricles were pooled, minced and dispersed by three 20-min incubations at 37° C. in Ads buffer (116 mM NaCl, 20 mM HEPES, 10 mM NaH2PO4, 5.5 mM glucose, 5 mM KCl, 0.8 mM MgSO4, pH 7.4) containing collagenase Type II (65 units/ml, Worthington) and pancreatin (0.6 mg/ml, GibcoBRL). Dispersed cells were applied to a discontinuous gradient of 40.5% and 58.5% (v/v) Percoll (Amersham Biosciences), centrifuged, and myocytes collected from the interface layer. Myocyte preparations were pre-plated in Dulbecco's modified Eagle's medium (DMEM, Cellgro), supplemented with 10% (v/v) fetal bovine serum (FBS, HyClone), 4 mM L-glutamine and 1% penicillin/streptomycin for 1 hour at 37° C. to reduce fibroblast contamination, then plated at a density of 2.5×10^5 cells per well on 6-well tissue culture plates (or 10,000 cells/well on 96-well tissue culture plates) coated with a 0.2% (w/v) gelatin solution. […]
(§1) Hypertrophy and toxicity assays. Primary hypertrophy endpoints for NRVM included quantitation of: ANF secretion, total cellular protein and cell volume. ANF in media supernatants was quantitated by competitive ELISA using a monoclonal anti-ANF antibody (Biodesign) and a biotinylated ANF peptide (Phoenix Peptide). Total cellular protein was quantitated by standard Coomassie dye-binding assay; cells were lysed in protein assay reagent (BioRad) and absorbance at A595 was measured after 1 hour. […] After recovery by centrifugation, cell pellets were washed in PBS, resuspended in 10 ml IsoFlow electrolyte solution (Beckman-Coulter) and analyzed with a Z2 Coulter Particle Counter and Size Analyzer (Beckman-Coulter). Cytotoxicity was quantitated by measuring release of adenylate kinase (AK) from cultured NRVM into culture medium (ToxiLight kit, Cambrex).

The test system is the same in experiment [2]. Briefly: Total cellular protein (Coomassie dye-binding) in NRVM. It is filed as cell-based. The conditions noted are these: NRVM stimulated with compound alone. How it is done: NRVM culture. For preparations of neonatal rat ventricular myocytes (NRVMs), hearts were removed from 10-20 newborn (1-2 days old) Sprague-Dawley rats. Isolated ventricles were pooled, minced and dispersed by three 20-min incubations at 37° C. in Ads buffer (116 mM NaCl, 20 mM HEPES, 10 mM NaH2PO4, 5.5 mM glucose, 5 mM KCl, 0.8 mM MgSO4, pH 7.4) containing collagenase Type II (65 units/ml, Worthington) and pancreatin (0.6 mg/ml, GibcoBRL). Dispersed cells were applied to a discontinuous gradient of 40.5% and 58.5% (v/v) Percoll (Amersham Biosciences), centrifuged, and myocytes collected from the interface layer. […]
as §1, with “Cytotoxicity was quantitated by measuring release of adenylate kinase (AK) from cultured NRVM into culture medium (ToxiLight kit, Cambrex).” left out

A further experiment has as its target T1, Adenosine A2A (Homo sapiens, UniProt P29274).
T1 construct: purchased MDS Pharma services 200610
Kind of experiment: Radioligand receptor binding assay (MDS Pharma). The conditions noted are these: 10 μM compound, n=2. How it is done:
(§2) Receptor binding assays. Receptor binding assays were performed by MDS Pharma services. Assays included: Adenosine A1 (cat# 200510), Adenosine A2A (cat# 200610), Adenosine A3 (cat# 200720), Adrenergic alpha 1 (cat# 203500), Imidazoline 12 central (cat# 241000), Imidazoline I2 peripheral (cat# 241100), Inositol triphosphate (cat# 242500), Phorbol Ester (cat# 264500), 5-HT 2B (cat# 271700), and 5-HT 4 (cat# 272000).
(§3) • Summary of radioligand binding assays for 11 receptors. Data represent % inhibition of ligand binding in the presence of 10 μM 18264 (n=2).

The subject of experiment [3] is Imidazoline I2, peripheral. Briefly: Radioligand receptor binding assay (MDS Pharma). The conditions noted are these: 10 μM compound, n=2. How it is done:
as §2, §3

Experiment [4] deals with T2, Inositol Triphosphate IP3 (Rattus norvegicus, UniProt P29994).
T2 construct: purchased MDS Pharma services 242500
T2 sequence (P29994 whole entry): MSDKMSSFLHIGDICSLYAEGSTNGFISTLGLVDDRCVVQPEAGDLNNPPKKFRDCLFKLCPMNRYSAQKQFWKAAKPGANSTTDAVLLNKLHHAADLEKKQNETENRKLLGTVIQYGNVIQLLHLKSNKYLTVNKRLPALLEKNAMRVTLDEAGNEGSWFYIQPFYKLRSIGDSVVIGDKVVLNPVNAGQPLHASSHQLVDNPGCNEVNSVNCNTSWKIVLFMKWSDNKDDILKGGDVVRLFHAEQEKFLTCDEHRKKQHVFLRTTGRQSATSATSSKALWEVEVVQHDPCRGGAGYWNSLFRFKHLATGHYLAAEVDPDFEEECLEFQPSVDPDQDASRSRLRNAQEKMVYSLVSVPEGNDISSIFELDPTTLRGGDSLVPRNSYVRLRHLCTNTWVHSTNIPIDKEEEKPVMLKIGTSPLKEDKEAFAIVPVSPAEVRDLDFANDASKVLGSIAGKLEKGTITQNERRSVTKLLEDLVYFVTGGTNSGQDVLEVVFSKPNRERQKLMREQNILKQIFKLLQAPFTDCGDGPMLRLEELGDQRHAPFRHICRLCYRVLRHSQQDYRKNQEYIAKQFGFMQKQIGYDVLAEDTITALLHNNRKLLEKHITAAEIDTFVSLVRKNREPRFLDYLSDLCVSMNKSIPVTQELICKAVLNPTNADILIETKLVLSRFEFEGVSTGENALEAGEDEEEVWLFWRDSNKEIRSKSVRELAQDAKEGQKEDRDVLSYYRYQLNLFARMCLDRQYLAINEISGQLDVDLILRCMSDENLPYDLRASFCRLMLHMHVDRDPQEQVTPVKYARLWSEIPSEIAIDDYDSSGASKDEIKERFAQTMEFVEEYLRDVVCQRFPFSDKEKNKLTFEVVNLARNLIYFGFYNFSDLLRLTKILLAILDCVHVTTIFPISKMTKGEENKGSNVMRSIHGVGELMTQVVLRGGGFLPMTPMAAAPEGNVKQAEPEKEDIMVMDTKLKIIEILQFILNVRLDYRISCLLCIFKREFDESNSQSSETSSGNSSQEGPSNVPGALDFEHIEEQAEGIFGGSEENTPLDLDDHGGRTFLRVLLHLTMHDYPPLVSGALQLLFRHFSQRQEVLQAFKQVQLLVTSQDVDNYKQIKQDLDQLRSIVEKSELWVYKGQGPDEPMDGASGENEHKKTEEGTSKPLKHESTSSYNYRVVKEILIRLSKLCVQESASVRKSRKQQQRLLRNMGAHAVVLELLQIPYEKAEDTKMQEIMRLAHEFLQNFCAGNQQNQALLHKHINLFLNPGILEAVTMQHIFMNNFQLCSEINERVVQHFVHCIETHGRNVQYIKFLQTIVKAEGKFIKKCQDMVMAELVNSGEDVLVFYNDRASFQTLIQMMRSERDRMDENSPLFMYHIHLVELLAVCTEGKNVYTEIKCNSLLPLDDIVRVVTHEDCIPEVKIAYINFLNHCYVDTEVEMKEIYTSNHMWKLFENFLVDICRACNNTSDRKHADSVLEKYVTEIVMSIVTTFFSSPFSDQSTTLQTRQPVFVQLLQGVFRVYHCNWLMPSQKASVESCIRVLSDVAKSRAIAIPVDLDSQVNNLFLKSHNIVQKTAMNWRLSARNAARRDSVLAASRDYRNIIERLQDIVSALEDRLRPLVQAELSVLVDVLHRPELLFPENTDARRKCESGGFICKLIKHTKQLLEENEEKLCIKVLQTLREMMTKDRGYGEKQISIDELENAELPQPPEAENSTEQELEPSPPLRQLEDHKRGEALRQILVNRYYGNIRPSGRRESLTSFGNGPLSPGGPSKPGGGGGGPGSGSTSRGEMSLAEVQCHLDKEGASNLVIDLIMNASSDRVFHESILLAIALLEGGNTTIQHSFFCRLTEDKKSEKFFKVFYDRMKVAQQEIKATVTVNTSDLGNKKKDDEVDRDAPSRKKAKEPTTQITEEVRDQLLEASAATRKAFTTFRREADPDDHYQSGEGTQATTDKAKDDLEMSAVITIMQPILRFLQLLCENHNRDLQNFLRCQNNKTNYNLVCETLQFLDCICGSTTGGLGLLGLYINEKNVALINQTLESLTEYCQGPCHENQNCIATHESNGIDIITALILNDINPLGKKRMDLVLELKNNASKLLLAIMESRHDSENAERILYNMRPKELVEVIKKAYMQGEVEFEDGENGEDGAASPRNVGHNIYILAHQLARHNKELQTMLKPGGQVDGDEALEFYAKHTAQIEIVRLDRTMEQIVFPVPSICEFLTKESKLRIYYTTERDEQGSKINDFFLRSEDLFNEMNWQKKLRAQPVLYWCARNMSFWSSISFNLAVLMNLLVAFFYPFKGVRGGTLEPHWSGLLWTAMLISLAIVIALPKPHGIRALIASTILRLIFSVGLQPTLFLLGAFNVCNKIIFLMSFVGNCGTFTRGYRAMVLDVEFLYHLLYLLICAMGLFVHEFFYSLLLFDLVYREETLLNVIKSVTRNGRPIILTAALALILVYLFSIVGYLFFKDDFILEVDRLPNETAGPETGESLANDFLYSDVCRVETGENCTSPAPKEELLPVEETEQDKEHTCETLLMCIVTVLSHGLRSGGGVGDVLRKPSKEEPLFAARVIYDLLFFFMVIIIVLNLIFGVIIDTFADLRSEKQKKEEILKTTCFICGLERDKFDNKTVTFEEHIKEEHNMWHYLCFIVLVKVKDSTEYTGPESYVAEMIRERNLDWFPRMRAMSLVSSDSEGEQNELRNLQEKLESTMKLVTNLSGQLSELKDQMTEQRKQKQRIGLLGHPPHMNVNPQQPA
Kind of experiment: Radioligand receptor binding assay (MDS Pharma). To be noted: 10 μM compound, n=2. How it is done: as §2, §3

A further experiment has as its target T3, Adenosine A1 (Homo sapiens, UniProt P30542).
T3 construct: purchased MDS Pharma services 200510
T3 sequence (P30542 1-326): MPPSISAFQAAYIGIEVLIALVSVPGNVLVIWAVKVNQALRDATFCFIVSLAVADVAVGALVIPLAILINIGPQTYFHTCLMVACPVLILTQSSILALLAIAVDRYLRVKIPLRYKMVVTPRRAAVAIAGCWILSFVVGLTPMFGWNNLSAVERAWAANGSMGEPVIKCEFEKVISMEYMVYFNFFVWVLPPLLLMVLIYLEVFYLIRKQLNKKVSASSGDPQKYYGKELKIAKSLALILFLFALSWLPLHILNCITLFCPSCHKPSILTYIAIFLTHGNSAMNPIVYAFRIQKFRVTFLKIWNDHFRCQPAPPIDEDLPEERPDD
Kind of experiment: Radioligand receptor binding assay (MDS Pharma). To be noted: 10 μM compound, n=2. How it is done: as §2, §3

In another experiment the test system is Adrenergic alpha 1. Kind of experiment: Radioligand receptor binding assay (MDS Pharma). The conditions noted are these: 10 μM compound, n=2. On the procedure:
as §2, §3

Another experiment relates to Imidazoline I2, central. Briefly: Radioligand receptor binding assay (MDS Pharma). The conditions noted are these: 10 μM compound, n=2. On the procedure:
as §2, §3

The target in a further experiment is T4, 5-HT2C (Homo sapiens, UniProt P28335).
T4 sequence (P28335 33-458): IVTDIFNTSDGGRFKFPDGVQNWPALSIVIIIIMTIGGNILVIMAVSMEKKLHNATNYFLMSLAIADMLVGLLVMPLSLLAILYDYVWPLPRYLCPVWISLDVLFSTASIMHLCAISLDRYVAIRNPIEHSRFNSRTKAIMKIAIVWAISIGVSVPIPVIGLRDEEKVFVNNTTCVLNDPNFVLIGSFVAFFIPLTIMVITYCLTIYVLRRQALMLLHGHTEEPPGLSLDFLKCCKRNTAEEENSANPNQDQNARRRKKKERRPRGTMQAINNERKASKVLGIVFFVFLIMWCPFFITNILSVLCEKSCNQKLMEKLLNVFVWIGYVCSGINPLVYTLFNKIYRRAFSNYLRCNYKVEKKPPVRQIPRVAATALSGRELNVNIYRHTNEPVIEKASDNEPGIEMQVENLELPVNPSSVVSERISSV
Kind of experiment: Radioligand receptor binding assay. The conditions noted are these: 10 μM compound, n=2.

A further experiment relates to 5-HT1. Kind of experiment: Radioligand receptor binding assay. On the procedure: as §2, §3
• Summary of radioligand binding assays for three receptors. Data represent % inhibition of ligand binding in the presence of 10 μM 20068 (n=2).

In another experiment the test system is HDAC5. Kind of experiment: HDAC localization assay, GFP-HDAC5 in NRVM. To be noted: NRVM, two hours; 18264 1 μM, PE 20 μM. It is filed as cell-based, rat. On the procedure:
NRVM culture. For preparations of neonatal rat ventricular myocytes (NRVMs), hearts were removed from 10-20 newborn (1-2 days old) Sprague-Dawley rats. Isolated ventricles were pooled, minced and dispersed by three 20-min incubations at 37° C. in Ads buffer (116 mM NaCl, 20 mM HEPES, 10 mM NaH2PO4, 5.5 mM glucose, 5 mM KCl, 0.8 mM MgSO4, pH 7.4) containing collagenase Type II (65 units/ml, Worthington) and pancreatin (0.6 mg/ml, GibcoBRL). Dispersed cells were applied to a discontinuous gradient of 40.5% and 58.5% (v/v) Percoll (Amersham Biosciences), centrifuged, and myocytes collected from the interface layer. Myocyte preparations were pre-plated in Dulbecco's modified Eagle's medium (DMEM, Cellgro), supplemented with 10% (v/v) fetal bovine serum (FBS, HyClone), 4 mM L-glutamine and 1% penicillin/streptomycin for 1 hour at 37° C. to reduce fibroblast contamination, then plated at a density of 2.5×10^5 cells per well on 6-well tissue culture plates (or 10,000 cells/well on 96-well tissue culture plates) coated with a 0.2% (w/v) gelatin solution. After 24 hours in culture, myocyte preparations were transferred to serum-free maintenance medium (DMEM supplemented with 0.1% (v/v) Nutridoma (Roche), L-glutamine and penicillin/streptomycin). Where indicated, NRVM were treated with test compounds for a period of 48 h. For immunofluorescence applications, NRVM cultures were fixed, incubated with primary antibodies against alpha skeletal actin and atrial natriuretic factor, then incubated with rhodamine- or flurorescein-conjugated secondary antibodies. For HDAC localization assays, NRVM were plated to clear bottomed 96-well plates and infected overnight with recombinant adenovirus encoding HDAC5 fused to green fluorescent protein (multiplicity of infection=50). The next day, medium was replaced with serum-free maintenance medium for 4 hours, and test compounds added. After two hours, NRVM were fixed and imaged by fluorescent microscopy.

T1 sequence (P29274 whole entry): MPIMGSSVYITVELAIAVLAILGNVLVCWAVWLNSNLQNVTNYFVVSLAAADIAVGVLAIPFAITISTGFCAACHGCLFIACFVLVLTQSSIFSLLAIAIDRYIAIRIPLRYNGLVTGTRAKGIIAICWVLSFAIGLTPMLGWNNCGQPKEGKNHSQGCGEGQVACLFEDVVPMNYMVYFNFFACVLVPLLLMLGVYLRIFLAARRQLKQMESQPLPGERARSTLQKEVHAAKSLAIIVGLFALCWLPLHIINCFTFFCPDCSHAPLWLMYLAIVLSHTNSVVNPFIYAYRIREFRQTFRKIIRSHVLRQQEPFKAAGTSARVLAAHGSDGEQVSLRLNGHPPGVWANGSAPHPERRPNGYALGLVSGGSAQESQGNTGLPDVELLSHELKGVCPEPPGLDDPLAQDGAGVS

For the molecule `Cc1c(-c2ccccc2)nc2sc3c(c2c1N)CCCC3` [Compound 18264, 3-Methyl-2-phenyl-5,6,7,8-tetrahydro-benzo[4,5]thieno[2,3-b]pyridin-4-ylamine], the cell volume entry in experiment [1] was “increased”. The total cellular protein result in experiment [2] is given as “increased”. Moreover, the inhibition at 10 µM was determined as 14% at Adenosine A2A, 3% in [4], 17% on Adenosine A1 and 42% at 5-HT2C. For the same molecule, the “% Inhibition of Binding” value in [3] is 4%; in the experiment with Adrenergic alpha 1, 17%; in the experiment with Imidazoline I2, central, 15%; in the experiment with 5-HT1 (10 μM compound, n=2), −25%. In addition, the “binding (in words)” value with 5-HT1 (radioligand binding, 10 μM) is on record as “No significant binding”. Moreover, in the experiment with HDAC5, the “nuclear export of HDAC5-GFP” value is recorded as “driven from the nucleus to the cytoplasm”.

For the origin of these results see patent publication US20050265999A1, “Modulation of 5-HT2 receptors as a treatment for cardiovascular diseases” (Myogen, Inc., priority 2003, published 2005).
